Reference: US12447151B2, “Alkyne derivative, preparation method for same, and uses thereof” (ZHEJIANG HISUN PHARMACEUTICAL CO., LTD., priority 2019, dated 2025)

How the values were obtained:
recombinant human PI3Kγ = recombinant human PI3Kγ (Homo sapiens (Human), UniProt P48736); assay: Inhibitory activity on PI3K kinase (ADP-Glo Kinase Assay); assay type: biochemical
Source text: The following method is used to determine the degree of inhibition of recombinant human PI3Kα, PI3Kβ, PI3Kγ and PI3Kδ kinase activity by the compounds of the present invention under in vitro conditions. Promega's ADP-Glo Kinase Assay Kit (Cat. No. V9102) was used in this method. The above kit was a luminescence kinase detection kit, which was used to detect the ADP content produced by the kinase reaction. The ADP content was positively correlated with the kinase activity. By measuring the ADP content, the inhibition of the compound on the activity of PI3Kα, PI3Kβ, PI3Kγ and PI3Kδ kinases was reflected. For detailed experimental operations, please refer to the kit instructions. Recombinant human PI3Kα, PI3Kγ, and PI3Kδ were purchased from Invitrogen, and PI3Kβ was purchased from Promega (category numbers were PI3Kα: PV4788; PI3Kβ: V1751; PI3Kγ: PV4786 and PI3Kδ: PV6451 separately).

PI3Kα(C2C12) = PI3Kα(C2C12) (Mus musculus (Mouse), UniProt P42337); assay: Cell activity of PI3K subtypes, AlphaLISA p-AKT (pS473); assay type: cell-based; details: C2C12 cells, IGF-1 stimulated
Chain of PI3Kα(C2C12) (P42337 whole entry): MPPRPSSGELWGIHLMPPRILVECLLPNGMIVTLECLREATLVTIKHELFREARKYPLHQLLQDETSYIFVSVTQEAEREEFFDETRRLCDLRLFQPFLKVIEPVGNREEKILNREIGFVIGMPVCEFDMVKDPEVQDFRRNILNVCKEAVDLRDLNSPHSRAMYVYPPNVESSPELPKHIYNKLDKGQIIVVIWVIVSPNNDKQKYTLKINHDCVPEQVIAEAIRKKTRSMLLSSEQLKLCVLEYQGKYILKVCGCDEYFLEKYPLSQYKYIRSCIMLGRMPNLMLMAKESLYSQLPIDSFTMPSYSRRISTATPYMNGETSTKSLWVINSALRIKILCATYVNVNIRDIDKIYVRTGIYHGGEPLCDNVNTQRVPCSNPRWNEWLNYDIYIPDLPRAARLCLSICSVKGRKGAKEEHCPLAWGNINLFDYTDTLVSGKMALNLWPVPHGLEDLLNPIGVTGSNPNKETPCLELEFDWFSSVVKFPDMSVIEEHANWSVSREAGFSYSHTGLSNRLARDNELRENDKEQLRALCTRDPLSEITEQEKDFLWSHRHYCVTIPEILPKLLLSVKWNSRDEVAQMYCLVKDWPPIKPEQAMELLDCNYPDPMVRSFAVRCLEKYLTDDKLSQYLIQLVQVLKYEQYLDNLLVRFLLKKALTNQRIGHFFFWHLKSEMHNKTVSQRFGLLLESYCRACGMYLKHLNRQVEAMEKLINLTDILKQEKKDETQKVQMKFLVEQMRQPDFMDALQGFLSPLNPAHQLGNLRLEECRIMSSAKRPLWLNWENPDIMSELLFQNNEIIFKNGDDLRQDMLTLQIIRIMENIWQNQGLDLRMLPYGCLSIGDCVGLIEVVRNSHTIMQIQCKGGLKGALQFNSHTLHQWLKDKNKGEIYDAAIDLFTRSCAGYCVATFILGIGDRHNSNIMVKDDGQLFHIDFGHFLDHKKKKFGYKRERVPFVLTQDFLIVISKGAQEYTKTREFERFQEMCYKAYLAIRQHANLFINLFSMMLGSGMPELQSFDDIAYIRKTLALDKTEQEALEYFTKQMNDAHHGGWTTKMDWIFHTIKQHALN
Chain of PI3Kα(C2C12) (P26450 whole entry partner): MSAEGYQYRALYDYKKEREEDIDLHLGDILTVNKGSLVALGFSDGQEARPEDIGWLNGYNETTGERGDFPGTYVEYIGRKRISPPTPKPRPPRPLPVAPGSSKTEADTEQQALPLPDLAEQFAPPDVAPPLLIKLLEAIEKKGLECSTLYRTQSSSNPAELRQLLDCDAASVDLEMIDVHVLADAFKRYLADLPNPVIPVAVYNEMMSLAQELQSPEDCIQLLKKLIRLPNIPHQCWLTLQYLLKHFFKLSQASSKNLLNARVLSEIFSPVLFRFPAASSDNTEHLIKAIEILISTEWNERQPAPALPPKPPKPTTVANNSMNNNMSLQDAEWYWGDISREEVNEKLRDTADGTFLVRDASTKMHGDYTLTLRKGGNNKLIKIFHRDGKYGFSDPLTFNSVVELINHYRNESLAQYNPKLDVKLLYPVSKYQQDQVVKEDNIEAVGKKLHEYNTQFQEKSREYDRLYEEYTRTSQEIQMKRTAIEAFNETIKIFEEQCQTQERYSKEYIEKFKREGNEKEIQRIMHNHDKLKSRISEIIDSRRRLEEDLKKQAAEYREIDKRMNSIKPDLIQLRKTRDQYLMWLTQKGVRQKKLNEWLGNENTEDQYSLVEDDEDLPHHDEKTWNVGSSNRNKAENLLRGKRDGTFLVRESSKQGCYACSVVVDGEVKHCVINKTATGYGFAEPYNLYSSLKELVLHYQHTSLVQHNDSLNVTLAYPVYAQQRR
Source text: (§1) The following method was used to determine the degree of inhibition of the compounds of the present invention on activity of PI3Kα, PI3Kβ, PI3Kγ, and PI3Kδ kinase in different cells. The AlphaLISA SureFire Ultra p-AKT1/2/3 (pS473) kit (#ALSU-PAKT-B500) of PE company was used in the method. The above kit used AlphaLISA technology, using donor and acceptor beads to detect the interaction of biomolecules, to detect the content of p-AKT (pS473), reflecting the intensity of inhibition of the compounds on PI3Kα, PI3Kβ, PI3Kγ and PI3Kδ at the cell level. For detailed experimental operations, please refer to the kit instructions.
(§2) The experimental procedure was briefly described as follows: the experiment was carried out in a 384-well plate using a Multidrop dispenser (Thermo, #836-4049), using different cells for different PI3K subtypes (PI3Kα: C2C12 cells (myoblasts); PI3Kβ: PC-3 cells (human prostate cancer cells); PI3Kγ: Raw264.7 cells (monocyte macrophages); PI3Kδ: Raji cells (lymphoma cells)). 6 μL of the corresponding cells were transferred to the wells of a 384-well plate. After centrifugation 500 RPM for 30 seconds, the plate was placed in a 37° C., 5% CO2 incubator for 2 hours. The test compound was first dissolved in DMSO to prepare a 10 mM stock solution, which was diluted 4-fold with DMSO. 30 nL was transferred by Echo (Labcyte, #550) to each well (final concentration is 10000 nM-0.2 nM), and incubated for 30 minutes. Then for C2C12 cells used for PI3Kα subtype, 2 uL IGF-1 (R&D, #291-G1-200, final concentration 1200 ng/mL) was added and incubated for 20 minutes. For PC-3 cells used for PI3Kβ subtype, 2 μL LPA (Sigma, #L7260, final concentration 15 ug/mL) was added and incubated for 20 minutes. For Raw264.7 cells used for PI3Kγ subtype, 2 uL C5a (Biotang, #RPR9899, final concentration 80 ng/mL) was added and incubated for 5 minutes. For Raji cells used for PI3Kδ subtype, 2 μL IgM (Jackson ImmunoResearch, #109-006-129, final concentration 3 ug/mL) was added and incubated for 10 minutes. After the incubation, AlphaLISA SureFire Ultra p-AKT1/2/3(pS473) kit was used to determine the AlphaLISA signal. The kit determination method was briefly described as follows: 20 μL Lysis Buffer was used to lyse the cells for 10 minutes. Then 5 uL acceptor mix and 5 uL donor mix were added to a 384-well plate. The plate was incubated with shaking at room temperature for 2 hours. Envision (PE, #2104) was used to read AlphaLISA signal. By comparing with the signal intensity ratio of the control group (0.5% DMSO), the percentage inhibition rate of the compound at each concentration was calculated. The GraphPad Prism 5 software was used to perform nonlinear regression analysis of the compound concentration logarithmic value vs. the inhibition rate to obtain the IC50 values of the compounds, shown in Table 3.

PI3Kβ(PC-3) = PI3Kβ(PC-3) (Homo sapiens (Human), UniProt P42338); assay: as above; assay type: cell-based; details: PC-3 cells, LPA stimulated
Source text: as §1, §2

PI3Kγ(Raw264.7) = PI3Kγ(Raw264.7) (Mus musculus (Mouse), UniProt Q9JHG7); assay: as above; assay type: cell-based
Chain of PI3Kγ(Raw264.7) (Q9JHG7 whole entry): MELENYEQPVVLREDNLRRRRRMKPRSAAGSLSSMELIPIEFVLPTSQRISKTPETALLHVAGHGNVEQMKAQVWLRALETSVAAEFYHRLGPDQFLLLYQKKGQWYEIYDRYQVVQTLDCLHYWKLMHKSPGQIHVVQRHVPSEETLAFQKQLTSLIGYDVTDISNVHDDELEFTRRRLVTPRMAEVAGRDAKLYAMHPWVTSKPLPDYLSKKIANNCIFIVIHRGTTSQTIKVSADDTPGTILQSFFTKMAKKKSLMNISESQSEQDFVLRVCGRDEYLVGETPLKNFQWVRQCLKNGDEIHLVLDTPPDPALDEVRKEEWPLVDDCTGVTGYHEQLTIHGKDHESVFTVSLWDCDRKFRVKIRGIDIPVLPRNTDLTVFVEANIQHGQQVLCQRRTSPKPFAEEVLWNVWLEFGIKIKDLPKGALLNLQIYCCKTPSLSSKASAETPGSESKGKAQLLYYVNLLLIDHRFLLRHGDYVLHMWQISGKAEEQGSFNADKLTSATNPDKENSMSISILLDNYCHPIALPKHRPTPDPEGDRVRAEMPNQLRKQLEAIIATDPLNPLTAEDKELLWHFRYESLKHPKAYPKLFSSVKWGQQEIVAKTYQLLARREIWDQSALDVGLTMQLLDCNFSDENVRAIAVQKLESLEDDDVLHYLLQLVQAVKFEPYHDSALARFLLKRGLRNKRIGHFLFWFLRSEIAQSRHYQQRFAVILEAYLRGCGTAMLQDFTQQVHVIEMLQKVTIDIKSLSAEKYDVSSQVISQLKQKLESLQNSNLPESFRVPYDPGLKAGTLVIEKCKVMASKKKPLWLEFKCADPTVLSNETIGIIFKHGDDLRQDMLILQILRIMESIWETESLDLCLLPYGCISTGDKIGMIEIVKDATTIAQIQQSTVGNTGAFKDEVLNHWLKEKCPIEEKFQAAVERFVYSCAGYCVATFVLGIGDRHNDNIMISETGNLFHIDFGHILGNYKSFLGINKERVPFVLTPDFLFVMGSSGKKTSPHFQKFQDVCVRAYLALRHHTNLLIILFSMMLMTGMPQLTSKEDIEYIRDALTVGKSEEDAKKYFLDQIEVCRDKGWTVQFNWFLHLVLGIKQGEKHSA
Chain of PI3Kγ(Raw264.7) (Q5SW28 whole entry partner): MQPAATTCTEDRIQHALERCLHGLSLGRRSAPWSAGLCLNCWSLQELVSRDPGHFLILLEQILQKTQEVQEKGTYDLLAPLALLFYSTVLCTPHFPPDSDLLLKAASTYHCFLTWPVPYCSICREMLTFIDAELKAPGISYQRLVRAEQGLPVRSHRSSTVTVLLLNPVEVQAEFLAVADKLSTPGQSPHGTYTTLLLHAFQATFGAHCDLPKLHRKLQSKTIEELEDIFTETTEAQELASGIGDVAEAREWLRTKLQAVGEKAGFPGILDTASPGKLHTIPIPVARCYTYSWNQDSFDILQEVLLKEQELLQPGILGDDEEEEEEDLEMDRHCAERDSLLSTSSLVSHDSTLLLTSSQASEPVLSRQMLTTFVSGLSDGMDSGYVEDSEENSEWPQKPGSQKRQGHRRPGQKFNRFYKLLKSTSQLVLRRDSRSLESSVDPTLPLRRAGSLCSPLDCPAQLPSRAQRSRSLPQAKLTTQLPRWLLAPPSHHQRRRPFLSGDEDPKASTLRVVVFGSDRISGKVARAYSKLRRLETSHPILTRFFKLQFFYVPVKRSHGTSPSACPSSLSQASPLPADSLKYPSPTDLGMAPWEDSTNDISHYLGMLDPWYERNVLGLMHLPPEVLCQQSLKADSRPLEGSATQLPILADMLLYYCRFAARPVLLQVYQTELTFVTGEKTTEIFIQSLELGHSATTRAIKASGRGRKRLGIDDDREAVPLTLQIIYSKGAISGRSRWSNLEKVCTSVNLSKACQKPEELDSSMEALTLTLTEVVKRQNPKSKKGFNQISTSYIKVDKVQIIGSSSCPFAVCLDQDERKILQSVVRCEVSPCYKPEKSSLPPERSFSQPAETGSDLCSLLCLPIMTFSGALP
Source text: as §1, §2

PI3Kδ(Raji) = PI3Kδ(Raji) (Homo sapiens (Human), UniProt O00329); assay: as above; assay type: cell-based; details: Raji cells, IgM stimulated
Source text: as §1, §2

[1] = Oral pharmacokinetics in ICR mice; assay type: in vivo; details: male, mouse, plasma, Oral (5 mg/kg)
Procedure: Using ICR mice as the test animals, the mice were intragastrically administrated with the compound of the present invention. LC/MS/MS method was used to determine the drug concentration in the plasma at different times to study the pharmacokinetic characteristics of the compound of the present invention in mice.
An appropriate amount of the compound to be tested was weighed, and 0.5% sodium carboxymethylcellulose (containing 0.05% Tween80) was added. The mixture was vortexed, and sonicated so that the solid was ultrasonically dispersed uniformly to obtain a suspension; 100 μL×2 of the preparation were aspirated, and placed in 1.5-mL EP tubes, stored at 2 to 8° C. The concentration of the preparation was 0.5 mg/mL.
Twenty-seven healthy adult ICR male mice were fasted overnight and then intragastrically administered (dosage of administration was 5 mg/kg), and fed 4 hours after administration.
At 0.083 hours, 0.25 hours, 0.5 hours, 1 hour, 2 hours, 4 hours, 8 hours, 12 hours, and 24 hours after administration, 80 μL of blood was collected from the orbital vein. About 0.08 mL of blood was collected, and placed in EDTA-K2 anticoagulation tube. […] The collected plasma was stored at −40 to −20° C. before analysis. The […] method was used to determine the content of the test compound in the plasma of ICR mice after intragastric administration of different compounds.

recombinant human PI3Kβ = recombinant human PI3Kβ (Homo sapiens (Human), UniProt P42338); assay: Inhibitory activity on PI3K kinase (ADP-Glo Kinase Assay)
Source text: The following method is used to determine the degree of inhibition of recombinant human PI3Kα, PI3Kβ, PI3Kγ and PI3Kδ kinase activity by the compounds of the present invention under in vitro conditions. Promega's ADP-Glo Kinase Assay Kit (Cat. No. V9102) was used in this method. The above kit was a luminescence kinase detection kit, which was used to detect the ADP content produced by the kinase reaction. The ADP content was positively correlated with the kinase activity. By measuring the ADP content, the inhibition of the compound on the activity of PI3Kα, PI3Kβ, PI3Kγ and PI3Kδ kinases was reflected. […] Recombinant human PI3Kα, PI3Kγ, and PI3Kδ were purchased from Invitrogen, and PI3Kβ was purchased from Promega (category numbers were PI3Kα: PV4788; PI3Kβ: V1751; PI3Kγ: PV4786 and PI3Kδ: PV6451 separately).

Chain of recombinant human PI3Kγ (P48736 whole entry): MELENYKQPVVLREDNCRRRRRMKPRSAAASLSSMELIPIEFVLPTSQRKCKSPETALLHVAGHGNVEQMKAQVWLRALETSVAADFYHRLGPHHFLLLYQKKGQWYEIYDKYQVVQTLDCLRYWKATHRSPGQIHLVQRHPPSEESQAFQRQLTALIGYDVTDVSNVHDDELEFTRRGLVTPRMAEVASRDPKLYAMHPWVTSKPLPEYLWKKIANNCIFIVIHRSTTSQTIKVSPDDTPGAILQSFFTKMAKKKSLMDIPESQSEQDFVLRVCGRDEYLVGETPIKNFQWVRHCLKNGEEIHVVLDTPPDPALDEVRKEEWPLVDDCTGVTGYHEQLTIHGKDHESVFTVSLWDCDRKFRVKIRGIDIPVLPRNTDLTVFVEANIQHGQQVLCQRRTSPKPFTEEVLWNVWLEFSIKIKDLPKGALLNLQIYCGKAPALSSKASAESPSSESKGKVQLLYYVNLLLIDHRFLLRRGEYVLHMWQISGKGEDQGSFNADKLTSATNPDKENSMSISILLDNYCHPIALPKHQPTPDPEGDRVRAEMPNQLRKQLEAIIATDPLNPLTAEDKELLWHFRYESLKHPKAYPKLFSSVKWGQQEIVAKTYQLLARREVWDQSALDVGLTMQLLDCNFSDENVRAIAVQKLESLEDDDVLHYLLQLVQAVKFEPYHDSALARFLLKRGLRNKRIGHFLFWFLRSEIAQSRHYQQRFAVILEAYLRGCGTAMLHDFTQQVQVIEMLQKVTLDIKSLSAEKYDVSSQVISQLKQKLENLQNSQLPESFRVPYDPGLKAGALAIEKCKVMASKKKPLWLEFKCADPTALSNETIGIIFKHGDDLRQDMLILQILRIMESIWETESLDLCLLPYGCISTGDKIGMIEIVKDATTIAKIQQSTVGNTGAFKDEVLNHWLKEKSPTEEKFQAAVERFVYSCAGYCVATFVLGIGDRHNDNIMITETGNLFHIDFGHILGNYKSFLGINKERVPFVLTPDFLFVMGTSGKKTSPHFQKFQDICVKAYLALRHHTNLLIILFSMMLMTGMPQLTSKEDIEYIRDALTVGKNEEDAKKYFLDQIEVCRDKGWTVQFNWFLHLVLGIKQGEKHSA

- IC50 (recombinant human PI3Kγ; ADP-Glo, ATP 10 μM): 0.58 nM
- IC50 (PI3Kα)/IC50(PI3Kγ) (recombinant human PI3Kγ; kinase selectivity for PI3Kγ over PI3Kα): 370
- IC50 (PI3Kβ)/IC50(PI3Kγ) (recombinant human PI3Kγ; kinase selectivity for PI3Kγ over PI3Kβ): 804
- IC50 (PI3Kδ)/IC50(PI3Kγ) (recombinant human PI3Kγ; kinase selectivity for PI3Kγ over PI3Kδ): 330
- IC50 (PI3Kα(C2C12)): 4770 nM
- IC50 (PI3Kβ(PC-3)): 878 nM
- IC50 (PI3Kγ(Raw264.7); Raw264.7 cells, C5a stimulated, p-AKT (pS473)): 3.42 nM
- IC50 (PI3Kα)/IC50(PI3Kγ) (PI3Kγ(Raw264.7); cell selectivity, C2C12 vs Raw264.7): 1394
- IC50 (PI3Kβ)/IC50(PI3Kγ) (PI3Kγ(Raw264.7); cell selectivity, PC-3 vs Raw264.7): 257
- IC50 (PI3Kδ)/IC50(PI3Kγ) (PI3Kγ(Raw264.7); cell selectivity, Raji vs Raw264.7): 104
- IC50 (PI3Kδ(Raji)): 355 nM
- AUC(0-inf) ([1]; read-out: Area under the curve AUC0-∞): 15100 ng·h/mL
- bioavailability ([1]; read-out: Bioavailability F): 60%
- half-life ([1]; read-out: Half-life period T½ (converted)): 3.4 h
- Cmax ([1]; read-out: Plasma concentration Cmax): 1730 ng/mL
- IC50 (recombinant human PI3Kβ): 466 nM
Structure (SMILES): C[C@H](NC(=O)c1c(N)nn2cccnc12)c1nc2cccc(C#Cc3cnn(C4CC4)c3)c2c(=O)n1-c1ccccc1 [Example 2, (S)-2-amino-N-(1-(5-((1-cyclopropyl-1H-pyrazol-4-yl)ethynyl)-4-oxo-3-phenyl-3,4-dihydroquinazolin-2-yl)ethyl)pyrazolo[1,5-a]pyrimidine-3-carboxamide]
